Values of other authors in patent US20250041322A1, “HEAT STRESS RELIEVING AGENT” (Hayashibara Co., Ltd., priority 2018, published 2025).

COc1ccc(C2CC(=O)c3c(O)cc(O[C@@H]4OC(CO)[C@@H](O)C(O)C4O)cc3O2)cc1O (stereo partly drawn) [7-O-β-glucosyl hesperetin]
Water solubility, comparison in words: more water-soluble than hesperidin
